Assay results published in the supplement of paper PMC11208160.

Assay: recombinant barcode read abundance after kanamycin selection (control-corrected) (log10(CPM+1)); higher = more efficient recombination; sequences stand for … in AGTGCAGAGAAAATCGGCCAGTTTTCTCTGCCTGCAGTCCGCATGCCGT…AGATTTATGCAGCGGACTGCCTTTCTCCCAAAGTGATAAACCGGACAGTATCATGGACCGGTTTTCCCGGTAATCCGTATTTGCAAGGTTGGTTTCACT; site = the 11-nt target
Method in brief: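 Recombination efficiency draws on barcodes counted at recombinant junctions in a pooled E. coli screen of targets paired with IS621 bridge RNA target-binding loops. The counts were converted to counts per million, averaged and corrected against the chloramphenicol/ampicillin LB agar control, then reported as log10(CPM+1). Selection plates held chloramphenicol/ampicillin/kanamycin with 0.1 mM IPTG, with two replicates per condition.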
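Also: IS621 recombinase and bridge RNA in Escherichia coli cells.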

| Sequence | recombinant barcode read abundance (log10) |
| --- | --- |
| CCTGGGACTTGGGTTCTAACCTGTTGCGA (site CCTGGGACTCC) | 0.256 |
| CCTGGGACTTGGGTTCTAACCTGTTGCGA (site CCTGGGACTGC) | 0.961 |
| CCTGGGACTTGGGTTCTAACCTGTTGCGA (site CCTGGGACTTC) | 2.58 |
| CCTGGTCCTTGGGTTCTAACCTGTTGCCT (site CCTGGGGCTAG) | 0.16 |
| CCTGGTCCTTGGGTTCTAACCTGTTGCCT (site CCTGGTCCTAG) | 1.56 |
| CCTTAGACTTGGGTTCTAACCTGTTGCGT (site CCTAATACTAC) | 0.107 |
| CCTTAGACTTGGGTTCTAACCTGTTGCGT (site CCTTAGACTAC) | 1.8 |
| CCTTCTACTTGGGTTCTAACCTGTTGCCT (site CCTTCTACTAG) | 0.225 |
| CCTTCTACTTGGGTTCTAACCTGTTGCCT (site CCTTCTACTTA) | 0 |
| CCTTGCCCTTGGGTTCTAACCTGTTGCCT (site CATTGCCCTAG) | 0.0176 |
| CCTTGCCCTTGGGTTCTAACCTGTTGCCT (site CCTTGCCCTAG) | 0.667 |
| CCTTGCCCTTGGGTTCTAACCTGTTGCCT (site CGTTGCCCTAG) | 0.1 |
| CCTTGCCCTTGGGTTCTAACCTGTTGCCT (site CTTTGCCCTAG) | 0.117 |
| CCTTGTCCTTGGGTTCTAACCTGTTGCAG (site CCTTGTCCTCT) | 0.79 |
| CCTTGTCCTTGGGTTCTAACCTGTTGCAG (site CGTTGTCCTTT) | 0.144 |
| CCTTGTGCTTGGGTTCTAACCTGTTGCGT (site CCTTGTGCTAC) | 0.158 |
| CCTTGTGCTTGGGTTCTAACCTGTTGCGT (site TAGGTATCTCT) | 0.0915 |
| CCTTGTTCTTGGGTTCTAACCTGTTGCCT (site ACTTGTTCTAG) | 0.105 |

| Sequence | recombinant barcode read abundance (log10) |
| --- | --- |
| CCTTGTTCTTGGGTTCTAACCTGTTGCCT (site CCTTGTTCTAG) | 0.0314 |
| CCTTGTTCTTGGGTTCTAACCTGTTGCCT (site GCTTGTTCTAG) | 0.14 |
| CCTTGTTCTTGGGTTCTAACCTGTTGCCT (site TCTTGTTCTAG) | 0.0322 |
| CCTTGTTCTTGGGTTCTAACCTGTTGCTA (site CCTTGTTCTTA) | 0.113 |
| CCTTGTTCTTGGGTTCTAACCTGTTGCTA (site TCGTGTTCTTA) | 0.149 |
| CGAAATGCTTGGGTTCTAACCTGTTGCCT (site CGAAATGCTAG) | 0.798 |
| CGAAATGCTTGGGTTCTAACCTGTTGCCT (site CGCAATGCTAG) | 0.0184 |
| CGAAATGCTTGGGTTCTAACCTGTTGCCT (site CGGAATGCTAG) | 0.035 |
| CGAAATGCTTGGGTTCTAACCTGTTGCCT (site CGTAATGCTAG) | 0.77 |
| CGAACGACTTGGGTTCTAACCTGTTGCTT (site CGAACGACTAA) | 0.0324 |
| CGAACGACTTGGGTTCTAACCTGTTGCTT (site CGAACGACTAG) | 0.113 |
| CGAACTACTTGGGTTCTAACCTGTTGCCT (site CGAACTACTAA) | 0.0404 |
| CGAACTACTTGGGTTCTAACCTGTTGCCT (site CGAACTACTAC) | 0.311 |
| CGAACTACTTGGGTTCTAACCTGTTGCCT (site CGAACTACTAG) | 0.0694 |
| CGAACTACTTGGGTTCTAACCTGTTGCCT (site CGAACTACTAT) | 0.316 |
| CGAATGTCTTGGGTTCTAACCTGTTGCGT (site CGAATGTCTAC) | 0.991 |
| CGAATGTCTTGGGTTCTAACCTGTTGCGT (site CGACTGCCTAC) | 0.0251 |
| CGACAGTCTTGGGTTCTAACCTGTTGCGT (site CGACAGTCTAC) | 2.41 |
